# In patent US20240299314A1 (priority 2023, published 2024):
# Assay: PTX release by dialysis bag diffusion technique (HPLC)
# Type: physicochemical
# Conditions: 1:9 DMSO:PBS solution
# Method: where mo (mg) is the initial amount of PTX used; mr (mg) is the residual amount of PTX in the loading solution; mNPs (g) is the […] used in the loading experiment. A dialysis bag diffusion technique was used for examining drug release behaviors. Briefly, PTX@NPs were dispersed in 1 mL of release solution (DMSO: PBS 1:9 v/v) and transferred to a dialysis bag (molecular weight cut off=14 kDa) and shaken in 5 mL of release solution at 37° C. At the predetermined time intervals, 200 μL of the solution was withdrawn and the same amount of fresh solution was added into the system. The released PTX content from PTX@NPs was determined by HPLC analysis. HPLC analyses were recorded on Agilent Technologies 1200 Series with ZORBAX SB-C18 column (Agilent, 5 μm, 4.6×250 mm). The mobile phase was water:acetonitrile (50:50 v/v). The separation was carried out at 30° C. The detection wavelength was 227 nm and a flow rate of 1.0 mL·min^−1 was employed. A sample volume of 20 μL was injected. Free PTX was used as a control to compare with PTX@NPs.
structure (smiles),measurement,setting,value
"CC(=O)O[C@H]1C(=O)[C@@]2(C)[C@H]([C@H](OC(=O)c3ccccc3)[C@]3(O)C[C@H](OC(=O)[C@H](O)[C@@H](NC(=O)c4ccccc4)c4ccccc4)C(C)=C1C3(C)C)[C@]1(OC(C)=O)CO[C@@H]1C[C@@H]2O [free PTX, paclitaxel]",PTX released at the early stage of the release,"37° C., dialysis bag",~15%
same,release behavior,after the early stage,short-term release
